Consider 42 molecules from US20090176837A1, “COMPOUNDS WITH ACTIVITY AT RETINOIC ACID RECEPTORS” (SONY CORPORATION, priority 2006, published 2009).

This assay has as its target T1, RARβ2 (Homo sapiens, UniProt P10826).
T1 construct: expressed in transfected cells
T1 sequence (P10826 1-448 isoform P10826-2): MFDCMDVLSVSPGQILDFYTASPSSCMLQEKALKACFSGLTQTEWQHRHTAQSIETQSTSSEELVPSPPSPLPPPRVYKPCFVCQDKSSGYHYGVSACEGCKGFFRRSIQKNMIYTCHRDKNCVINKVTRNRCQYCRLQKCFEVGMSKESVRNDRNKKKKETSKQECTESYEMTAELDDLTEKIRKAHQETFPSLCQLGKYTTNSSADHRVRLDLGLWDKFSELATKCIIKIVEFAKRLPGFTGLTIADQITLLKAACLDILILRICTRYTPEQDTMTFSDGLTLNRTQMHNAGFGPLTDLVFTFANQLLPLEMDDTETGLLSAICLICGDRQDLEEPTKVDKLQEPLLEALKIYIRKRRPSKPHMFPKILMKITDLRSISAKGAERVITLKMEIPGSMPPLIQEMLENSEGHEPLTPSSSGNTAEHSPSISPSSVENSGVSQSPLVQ
As to the kind of experiment: Receptor Selection and Amplification Technology (R-SAT) functional receptor assay. Format: cell-based. The text has this: The functional receptor assay, Receptor Selection and Amplification Technology (R-SAT), was used to investigate the pharmacological properties of known and novel RARβ agonists and antagonists.
Efficacy is relative to the maximal response of the reference ligand, Am-580.

[1] abbreviates: Table 1, efficacy relative to the maximal response of the reference ligand Am-580, read-out: % Eff.
Where [2] appears, read: Table 1, read-out: pEC50 (converted).
Where [3] appears, read: Table 1, efficacy relative to the maximal response of the reference ligand Am-580.
Where [4] appears, read: Table 2, efficacy relative to the maximal response of the reference ligand Am-580.
Where [5] appears, read: Table 2, efficacy relative to the maximal response of the reference ligand Am-580, read-out: % Eff.
Setting [6] is: Table 2, read-out: pEC50 (converted).

Read-outs that look alike come from different tables or passages of the source.

In the case of `Cc1sc(-c2ccc(C(=O)O)cc2)nc1OCC(=O)NC1CCC(C)CC1` (stereo not shown) [Compound 58, 4-[5-Methyl-4-[2-[(4-methylcyclohexyl)amino]-2-oxoethoxy]-2-thiazolyl]-benzoic acid], the Emax under setting [1] is 66%. Further, the EC50 under setting [2] is 708 nM.
`Cc1sc(-c2ccc(C(=O)O)cc2)nc1OCC(=O)NC1CCCC1` [Compound 61, 4-(4-Cyclopentylcarbamoylmethoxy-5-methyl-thiazol-2-yl)-benzoic acid]: under setting [1], the Emax stood at 39%. The EC50 under setting [2] was 832 nM.
One may read the pEC50 as the EC50 on a negative log10 scale, so that one unit is a factor of ten. Read a low pEC50 as a large EC50. “2-Fluoro-4-octyl[1,1′-biphenyl]-4-carboxylic acid [Compound 38]” showed a pEC50 (Table 1) of 6.81. The “% Eff.” value under setting [3] is 70%.
Regarding `CCCCOCCOc1nc(-c2ccc(C(=O)O)cc2)sc1C` [Compound 27, 4-[4-(2-Butoxy-ethoxy)-5-methyl-thiazol-2-yl]-benzoic acid], the Emax under setting [1] was 95%. For the same molecule, the EC50 under setting [2] is 75.9 nM.
On to `CCCCCCCc1ccc(-c2ccc(C(=O)NN)cc2)cc1` [Compound 45, 4′-Heptyl-biphenyl-4-carboxylic acid hydrazide], for which, under setting [1], the Emax is 78%. In addition, under setting [2], the EC50 is 257 nM.
For the setting “Table 2”, `CCCCCCCCc1ccc(-c2ccc(C(=O)OCCc3ccccn3)cc2)cc1` [Compound 28] registered a pEC50 of 7.09. The “% Eff.” value under setting [4] is recorded as 70%.
As for `CCCCCCCc1ccc(-c2ccc(C(=O)NO)cc2)cc1` [Compound 37, 4′-Heptyl-biphenyl-4-carboxylic acid hydroxyamide], the Emax under setting [1] worked out at 49%. The EC50 under setting [2] is 135 nM.
For the molecule `Cc1sc(-c2ccc(C(=O)O)cc2)nc1OCC(=O)NC1CCCCCC1` [Compound 56, 4-(4-Cycloheptycarbamoylmethoxy-5-methyl-thiazol-2-yl)-benzoic acid], the Emax under setting [1] stood at 105%. Under setting [2], the EC50 is 676 nM.
As to `CCCCCCCCc1ccc(-c2ccc(C(=O)n3cnc(NC(C)=O)n3)cc2)cc1` [Compound 15], the pEC50 (Table 1) is 7.37. Besides, the Emax under setting [1] was 76%.
Where the note is “Table 1”, `CCCC1CCCC(c2ccc(-c3ccc(C(=O)O)cc3)cc2)CC1` (stereo not shown) [Compound 49] displayed a pEC50 of 6.55. Moreover, under setting [1], the Emax is 59%.
The like results for `CCCCCCCOc1ccc(-c2ccc(C(=O)O)cc2)cc1` [Compound 24] were, in that order, 7.21 and 58%.
On to `CCCCCCCCc1ccc(-c2ccc(C(=O)NS(C)(=O)=O)cc2)cc1` [Compound 60, N-(4′-Octyl-biphenyl-4-carbonyl)-methanesulfonamide], for which, under setting [1], the Emax was determined as 51%. The EC50 under setting [2] is 832 nM.
With `CCCCCCCc1ccc(-c2ccc(C(=O)O)c(F)c2)cc1` [Compound 36, 3-Fluoro-4′-heptyl[1,1′-biphenyl]-4-carboxylic acid], the Emax under setting [1] was 42%. Moreover, the EC50 under setting [2] is 123 nM.
`CCCCCCCCc1ccc(-c2ccc(C(=O)OCCC#N)cc2)cc1` [Compound 34, 4′-Octyl-biphenyl-4-carboxylic acid 2-cyano-ethyl ester]: under setting [5], the Emax was determined as 71%. Also, the EC50 under setting [6] is 112 nM.
On to `CCCCCCCc1ccc(-c2ccc(C(=O)OCCC#N)cc2)cc1` [Compound 19, 4′-Heptyl-biphenyl-4-carboxylic acid 2-cyano-ethyl ester], for which, under setting [5], the Emax was found to be 36%. In addition, the EC50 under setting [6] is 52.5 nM.
In turn, `CCCCCCCCc1ccc(-c2ccc(C(=O)OCCc3ccccn3)cc2)cc1` [Compound 40] showed a pEC50 (Table 2) of 6.75. Further, the “% Eff.” value under setting [4] is listed as 82%.
Take `O=C(O)c1ccc(-c2ccc(OCCC=C(C3CC3)C3CC3)cc2)cc1` [Compound 47, 4′-(4,4-Dicyclopropyl-but-3-enyloxy)-biphenyl-4-carboxylic acid]: under setting [3], the “% Eff.” value is 58%.
As to `CCCCCCCOc1ccc(-c2ccc(C(=O)OCCC#N)cc2)cc1` [Compound 23, 4′-Heptyloxy-biphenyl-4-carboxylic acid 2-cyano-ethyl ester], under setting [5], the Emax amounted to 46%. The EC50 under setting [6] was 60.3 nM.
`CCCCCCCCc1ccc(-c2ccc(C(=O)O)cc2C)cc1` [Compound 1, 2-Methyl-4′-octyl[1,1′-hiphenyl]-4-carboxylic acid]: the Emax under setting [1] came out at 39%. In addition, under setting [2], the EC50 is 2.29 nM.
With `CCCCCCCCc1ccc(-c2ccc(C(=O)OCCc3ccccn3)c(F)c2)cc1` [Compound 5, 3-Fluoro-4′-octyl-biphenyl-4-carboxylic acid 2-pyridin-2-yl-ethyl ester], the Emax under setting [5] was 124%. The EC50 under setting [6] is 16.2 nM.
With `CCCOCCOc1nc(-c2ccc(C(=O)O)cc2)sc1C` [Compound 33, 4-[5-Methyl-4-(2-propoxy-ethoxy)-thiazol-2-yl]-benzoic acid], under setting [1], the Emax came out at 98%. The EC50 under setting [2] is 110 nM.
For `CCCCCCCc1ccc(-c2ccc(C(=O)OCCc3ccccn3)c(F)c2)cc1` [Compound 7, 3-Fluoro-4′-heptyl-biphenyl-4-carboxylic acid 2-pyridin-2-yl-ethyl ester], the Emax under setting [5] was 95%. Moreover, the EC50 under setting [6] is 19.5 nM.
With “Imidazol-1-yl-(4-octyl-biphenyl-4-yl)-methanone [Compound 8]”, the pEC50 (Table 1) was found to be 7.66. Also, the “% Eff.” value under setting [3] worked out at 79%.
In the case of `CCCCCCCCc1ccc(-c2ccc(C(=O)C(=O)O)cc2)cc1` [Compound 31, (4′-Octyl-biphenyl-4-yl)-oxo-acetic acid], the Emax under setting [1] came out at 80%. Besides, under setting [2], the EC50 was 95.5 nM.
Where the note is “Table 1”, `CCCCCCOc1ccc(-c2ccc(C(=O)O)cc2)cc1` [Compound 12] had a pEC50 of 7.54. Also, under setting [1], the Emax came to 72%.
Take “4-Heptyl-3-methyl[1,1′-biphenyl]-4-carboxylic acid [Compound 52]”: the negative-log EC50 (pEC50) (Table 1) was 6.41. Under setting [3], the “% Eff.” value came to 45%.
In turn, `CCCCCCCCc1ccc(-c2ccc(C(=O)OCCc3ccccn3)cc2)cc1` [Compound 14] had a pEC50 (Table 2) of 7.38. In addition, the “% Eff.” value under setting [4] was 93%.
In the case of `CCCCCCCc1ccc(-c2ccc(C(=O)O)cc2)cc1` [Compound 10, 4′-Heptyl[1,1′-biphenyl]-4-carboxylic acid], the “% Eff.” value under setting [3] was determined as 64%. For the same molecule, the EC50 under setting [2] was 26.3 nM.
Take `CCCCCCCc1ccc(-c2ccc(C(=O)NCCc3ccccn3)cc2)cc1` [Compound 59, 4′-Heptyl-biphenyl-4-carboxylic acid (2-pyridin-2-yl-ethyl)-amide]: the Emax under setting [1] worked out at 35%. For the same molecule, the EC50 under setting [2] was 776 nM.
Molecule `CCCCCCCc1ccc(-c2ccc(C(=O)OCc3ccco3)cc2)cc1` [Compound 21] registered a pEC50 (Table 2) of 7.26. Further, under setting [4], the “% Eff.” value turned out to be 106%.
Take `CCCCCCCc1ccc(-c2ccc(C(=O)OCc3ccco3)cc2)cc1` [Compound 17, 4′-Heptyl-biphenyl-4-carboxylic acid furan-2-ylmethyl Ester]: under setting [4], the “% Eff.” value came out at 33%. In addition, the EC50 under setting [6] is 45.7 nM.
In turn, `CCCCCCCCCCOc1ccc(-c2ccc(C(=O)O)cc2)cc1` [Compound 20] returned a negative logarithm of the EC50 (pEC50) (Table 1) of 7.26. The Emax under setting [1] came out at 98%.
The molecule `CCCCCCCc1ccc(-c2ccc(C(=O)O)cc2)cc1` [Compound 9] had a negative-log EC50 (pEC50) (Table 1) of 7.59. The Emax under setting [1] is 76%.
Turning to `CCCCCCCCOc1ccc(-c2ccc(C(=O)OCc3ccco3)cc2)cc1` [Compound 43, 4′-Octyloxy-biphenyl-4-carboxylic acid furan-2-ylmethyl ester], under setting [5], the Emax was found to be 67%. The EC50 under setting [6] was 214 nM.
Take `CCCCCCc1ccc(-c2ccc(C(=O)O)cc2)cc1` [Compound 16]: where the note is “Table 1”, the negative logarithm of the EC50 (pEC50) is on record as 7.34. In addition, the Emax under setting [1] was found to be 37%.
Turning to `CCCCNC(=O)COc1nc(-c2ccc(C(=O)O)cc2)sc1C` [Compound 62, 4-(4-Butylcarbamoylmethoxy-5-methyl-thiazol-2-yl)-benzoic acid], under setting [1], the Emax came out at 37%. The EC50 under setting [2] was 832 nM.
For the setting “Table 1”, `CCCCCCCCc1ccc(-c2ccc(C(=O)Nc3ccc(C)cn3)cc2)cc1` [Compound 29] displayed a pEC50 of 7.08. Besides, the Emax under setting [1] is 78%.
`CCCCCCCCOc1ccc(-c2ccc(C(=O)O)cc2)cc1` [Compound 32]: the negative logarithm of the EC50 (pEC50) (Table 1) was 7.02. Further, the Emax under setting [1] is 70%.
On to `CCCCCCCCN1CCN(c2ccc(C(=O)O)cc2)CC1` [Compound 50, 4-(4-Octyl-piperazin-1-yl)-benzoic acid], for which, under setting [1], the Emax was 85%. In addition, the EC50 (pEC50, Table 1) is 295 nM.
`CCCCCCCOc1ccc(-c2ccc(C(=O)OCCc3ccccn3)cc2)cc1` [Compound 30, 4′-Heptyloxy-biphenyl-4-carboxylic acid 2-pyridin-2-yl-ethyl ester]: the Emax under setting [5] came to 62%. Also, under setting [6], the EC50 was 91.2 nM.
Regarding `CCCCCc1ccc(-c2ccc(C(=O)O)cc2)cc1` [Compound 4], the pEC50 (Table 1) stood at 7.82. In addition, the Emax under setting [1] was 44%.
`O=C(O)c1ccc(-c2ccc(OCCC=C(C3CC3)C3CC3)cc2)cc1` [Compound 26, 4′[(4,4-Dicyclopropyl-3-butenyl)oxy][1,1-biphenyl]-4-carboxylic acid]: under setting [3], the “% Eff.” value is 36%.
